{"source": "paper PMC11986975", "about": "“A Cdk5 inhibitor restores cognitive function and alleviates type 2 diabetes in mice” (iScience, 2025)", "assay_type_in_all_cases": "in vivo", "key": {"[1]": {"assay": "LC-MS of brain lysate and serum after intraperitoneal injection in HFD mouse model", "conditions": "C57BL/6J, ip, HFD mice, LC-MS peak area in brain lysate compared to serum", "protocol": "To assess the BBB penetrability of BLINK11 and BLINK15 in the high-fat diet (HFD) mouse model, intraperitoneal injections were administered, and liquid chromatography-mass spectrometry (LC-MS) analysis was conducted on both brain lysate and serum samples (Figure 3). The LC-MS results depicted in Figures 3A and 3B showcase the peaks corresponding to the BLINK11 compound in the brain lysate and serum, respectively. Similarly, Figures 3C and 3D illustrate the peaks associated with the BLINK15 compound in the brain lysate and serum, respectively. […] These analyses provide a quantitative measure of the presence of the compounds in the respective samples. Furthermore, to ascertain the relative distribution of BLINK11 and BLINK15 in the brain compared to serum, the percentages of each compound present in the brain were calculated and plotted in a bar graph (Figure 3G). […]\nMetabolites, comprising the entire spectrum within the lysate excluding proteins but inclusive of drugs, were extracted from plasma and brain tissue homogenate samples. […] Compounds were analyzed in these samples using a multiple reaction monitoring method (using parameters mentioned in Table S5) on a triple quadrupole hybrid ion trap mass spectrometer (QTRAP 6500+, SCIEX) coupled with an ExionLC UHPLC system (SCIEX). […] Relative quantification was performed using MultiQuantTM software v.3.0 (SCIEX). […]"}, "[2]": {"system": "HFD-fed mice", "assay": "Rotarod test in HFD mice", "conditions": "i.p., 20 days", "protocol": "Rats and mice have been tested for motor coordination using the rotarod test. The animals were placed on a horizontal rod that rotates around its long axis for this test; in order to remain upright and prevent sliding off, the animal must move ahead. Every 5 min, the rod’s speed was raised, and the number of falls were counted to assess the motor coordination.[23]^,[55]"}, "[3]": {"system": "HFD-fed mice", "assay": "Y-maze test in HFD mice", "conditions": "i.p., 20 days", "protocol": "As previously mentioned, the Y-maze test was utilized to evaluate the mouse groups' short-term spatial memory The Y-maze test was used to assess short-term spatial memory in the mouse groups. The apparatus consists of three arms arranged in a Y-shape, typically labeled A, B, and C, with each arm having the same length and width. Mice were initially placed in one arm (usually arm A) and allowed to explore freely for 5 min, with one of the other arms blocked off, restricting exploration to the starting arm and the remaining open arm. After a 5-min delay, the mouse was reintroduced to the maze with all arms accessible. The time spent in each arm and the number of entries into each arm were recorded over a 5-min period. […] We also evaluated the mice’s spontaneous alternation rate during the Y-maze test. Spontaneous alternation reflects working memory, as it refers to the mouse’s tendency to enter a less recently visited arm. The sequence and number of arm entries were tracked, with an alternation defined as consecutive entries into all three arms without repetition (e.g., A-B-C, B-C-A).[59]^,[60]^,[61] […] As a result, we evaluated the novel arm’s exploration according to many criteria.Spontaneous Alternation (%) = {(Number of alternations)/ (Total arm entries−2)} ×100"}, "[4]": {"system": "amyloid beta (Aβ) 1–42", "assay": "Amyloid beta 1-42 in hippocampus of treated HFD mice (ELISA and immunohistochemistry)", "conditions": "i.p., 40 mg/kg"}}, "data": [{"smiles": "O=C(COc1ccccc1C(=O)Nc1cccc(Cl)c1Cl)Nc1ccc(N2CCOCC2)c(Cl)c1", "note": "[BLINK11, 2-(2-((3-chloro-4-morpholinophenyl)amino)-2-oxoethoxy)-N-(2,3-dichlorophenyl)benzamide]", "values": [{"measurement": "Kp", "setting": "[1]", "value": 0.38}, {"measurement": "Muscle strength and motor coordination on the rotarod", "setting": "[2]", "value": "rescue effect"}, {"measurement": "Y-maze alteration percentage", "setting": "[3]; 20 mg/kg/day", "value": "did not exhibit any rescue effect"}, {"measurement": "Y-maze alteration percentage", "setting": "[3]; 40 mg/kg/day", "value": "the decrease in alteration percentage was recovered"}, {"measurement": "Aβ 1–42 accumulation in the hippocampus", "setting": "[4]", "value": "significantly reduced"}]}, {"smiles": "COc1ccc(C(=O)C[C@@]2(O)C(=O)N(Cc3ccccc3)c3ccc(Br)cc32)cc1[N+](=O)[O-]", "note": "[BLINK15]", "values": [{"measurement": "Kp", "setting": "[1]", "value": 0.11}]}]}
